# Source: article PMC8476755 (Frontiers in Chemistry, 2021)
# Target: T1, GAT1 (Homo sapiens, UniProt P30531)
# T1 construct: expressed in transfected cells
# Experiment: FLIPR membrane potential (FMP) assay, CHO cells stably expressing GAT1
# Type: cell-based
# Settings: n = 2
# Excerpt: In order to scrutinize the mode of inhibition of bicyclo-GABA and the N-methylated derivative 2, the ability to be translocated by BGT1 was investigated in the functional FMP assay able to discriminate between substrates and inhibitors, as previously described ([Al-Khawaja et al., 2014]).
# The tsA201 cell line (a transformed HEK293 cell line), the Flp-In CHO cell lines stably expressing human (h) GATs and the HEK293 cell line stably expressing human α1β2γ2 GABAA receptors have been described previously and were cultured accordingly ([Al-Khawaja et al., 2014]; [Falk-Petersen et al., 2020]). […]
# The FMP assay performed on human α1β2γ2 GABAA receptors in HEK293 cells was performed as described and data analyzed accordingly ([Falk-Petersen et al., 2020]). […] Test compound solutions were prepared at 4x concentration in assay buffer and added to ligand plates pre-heated at 37°C for 10–15 min in the FLEXstation3 plate reader (Molecular Devices). After incubation, 33.3 µL test compound solution (4x) was automatically transferred to each well in the cell plate and the signal was measured for 90 s by measuring emission at 560 nm caused by excitation at 530 nm. […] Data obtained in the FMP assay are given as relative changes in fluorescence units (ΔRFU) by subtracting the average of the baseline fluorescence signal from the peak fluorescence signal after compound addition. […]
# T1 sequence (P30531 whole entry): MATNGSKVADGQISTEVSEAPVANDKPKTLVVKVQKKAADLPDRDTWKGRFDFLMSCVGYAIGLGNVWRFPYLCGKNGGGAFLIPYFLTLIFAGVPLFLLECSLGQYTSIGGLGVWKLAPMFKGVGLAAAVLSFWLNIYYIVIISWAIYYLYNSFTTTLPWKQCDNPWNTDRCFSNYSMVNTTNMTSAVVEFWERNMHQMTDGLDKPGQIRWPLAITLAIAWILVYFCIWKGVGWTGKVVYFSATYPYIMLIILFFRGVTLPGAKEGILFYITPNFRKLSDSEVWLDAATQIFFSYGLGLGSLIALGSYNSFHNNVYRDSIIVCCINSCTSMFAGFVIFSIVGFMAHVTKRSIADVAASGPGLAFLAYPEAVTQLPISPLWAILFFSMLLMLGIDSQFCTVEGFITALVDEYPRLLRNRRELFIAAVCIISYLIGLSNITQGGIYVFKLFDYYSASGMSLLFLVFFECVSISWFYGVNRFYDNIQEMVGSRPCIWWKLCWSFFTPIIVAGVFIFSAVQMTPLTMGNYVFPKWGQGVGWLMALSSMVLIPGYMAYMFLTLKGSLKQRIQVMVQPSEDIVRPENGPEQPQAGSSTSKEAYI
structure (smiles),measurement,setting,value
"N[C@@]12CC[C@H](C(=O)O)[C@@H]1C2 [bicyclo-GABA, (1S,2S,5R)-5-aminobicyclo[3.1.0]hexane-2-carboxylic acid]",Inhibitory effect at GAT1,in the presence of GABA EC50 concentration (10 µM),specific to BGT1
same,Substrate activity at GAT1,"tested as substrate, without GABA",lack of activity
